Experimental data: US20040053962A1, “Methods for inhibiting proliferation and inducing apoptosis in cancer cells” (priority 2003, published 2004)

Key:
Type in all cases: cell-based
[1] = test system: MiaPaCa-2 pancreatic cancer cells; assay: Cell proliferation assay (cell number, Coulter counter); conditions: 500 nM for 24, 48, and 72 hours (FIG. 2)
Description: (§1) Cell culture. The following pancreatic cancer cell lines were used: MiaPaCa-2 and PANC-1 (poorly-differentiated); Capan-1 and Capan-2 (well-differentiated); and HPAF and AsPC-1 (pleomorphic). These were purchased from American Type Culture Collection (Rockville, Md.). PANC-1 and MiaPaCa-2 were grown in DMEM media; HPAF and AsPC-1 were grown in MEM media; and Capan-1 and Capan-2 were grown in-McCoy's media. Media were supplemented with 10% FBS, and the cells were grown as monolayers in a humidified atmosphere of […] and 5% CO2 at 37° C. The cells were regularly seeded into 75 cm^2 flask with media changed every other day. For experiments, cells were grown to 80% confluence, digested with trypsin-EDTA, and plated either in 12 or 24-well plates at a concentration of 50,000/ml, as appropriate.
Cell proliferation assay. Pancreatic cancer cells were seeded into 24-well microplates and incubated at 37° C. […] At the end of each time period, the cells were trypsinized to produce a single cell suspension, and the cell number in each well was determined using a Zi-Coulter Counter (Luton, Bedfordsire, United Kingdom).

MiaPaCa-2 cells = assay: TUNEL assay (flow cytometry), MiaPaCa-2; conditions: control 1.5%
Description: TUNEL assay. Apoptosis was measured by flow cytometry using a terminal deoxynucleotidyl transferase-mediated deoxyuridine triphosphate nick-end labeling (“TUNEL”) assay. Cells were treated with LY293111 for the appropriate period of time, then digested with trypsin-EDTA, washed with ice-cold PBS twice, and fixed in 10% paraformaldehyde on ice for 20 minutes. Cells were then washed with PBS, permeabilized with 70% ethanol for at least 4 hours, washed again with PBS and incubated with 2.5 units of terminal deoxynucleotidyl transferase (TdT enzyme) and 100 pmol Br-dUTP in DNA labeling solution for one hour at 37° C. Cells were then rinsed twice, resuspended in 0.1 ml fluorescein labeled anti-BrdU antibody solution in the dark for 30 minutes. Then 0.5 ml propidium iodide/RNase A solution was added, and the cells analyzed by flow cytometry at 488 nm excitation.

[2] = test system: Capan-1 pancreatic cancer cell line; assay: [3H]-thymidine incorporation (DNA synthesis), Capan-1; conditions: mean±SEM; for proliferation (thymidine incorporation), % control: 24 hours
Description: as §1
(§2) DNA synthesis by [^3H]-Thymidine incorporation. Cells were plated in 12 or 24-well plates. After reaching 70% confluence, they were incubated in serum-free media for 24 hours, which was then replaced with fresh serum-free media with or without the appropriate concentration of leukotriene B4 receptor antagonist LY293111 (62.5-1000 nM), LTB4 (100-400 nM), or both. After the appropriate period of culture, cellular DNA synthesis was assayed by adding 0.5 μCi/well of [^3H]-methyl-thymidine and incubating for another 2 hours. Then, the cells were washed twice with PBS, fixed with 10% trichloroacetic acid (“TCA”) for 30 minutes, and solubilized by adding 0.4 M NaOH to each well. Radioactivity, indicating incorporation of ^3H-thymidine into DNA, was measured by adding a scintillation cocktail and counting on a scintillation counter (LKB RackBeta, Wallac, Turku, Finland)

[3] = test system: PANC-1 pancreatic cancer cell line; assay: [3H]-thymidine incorporation (DNA synthesis), PANC-1; conditions: mean±SEM; for proliferation (thymidine incorporation), % control: 24 hours
Description: as §1, §2

[4] = test system: HPAF pancreatic cancer cell line; assay: [3H]-thymidine incorporation (DNA synthesis), HPAF; conditions: for proliferation (thymidine incorporation), % control / proliferation, % control (time course): mean±SEM
Description: as §1, §2

CCCc1c(OCCCOc2cc(O)c(-c3ccc(F)cc3)cc2CC)cccc1Oc1ccccc1C(=O)O [LY293111, 2-(2-propyl-3-(3-(2-ethyl-4-(4-fluorophenyl)-5-hydroxyphenoxy)propoxy)-phenoxy)benzoic acid]
effect on cell number [1]: inhibition | apoptosis (TUNEL) (MiaPaCa-2 cells; MiaPaCa-2, 250 nM LY293111 for 24 hours): 12.6% | apoptosis (TUNEL) (MiaPaCa-2 cells; MiaPaCa-2, 500 nM LY293111 for 24 hours): 18.6% | proliferation (thymidine incorporation), % control ([2]; Capan-1, LY293111 62.5 nM): 99.1 ± 4.8 % control | proliferation (thymidine incorporation), % control ([2]; Capan-1, LY293111 125 nM): 56.9 ± 4.9 % control | proliferation (thymidine incorporation), % control ([2]; Capan-1, LY293111 250 nM): 16.4 ± 2.0 % control | proliferation, % control (time course) ([2]; Capan-1, LY293111 500 nM, 6 h): 70.5 ± 8.7 % control | proliferation, % control (time course) ([2]; Capan-1, LY293111 500 nM, 12 h): 44.5 ± 10.2 % control | proliferation, % control (time course) ([2]; Capan-1, LY293111 500 nM, 24 h): 15.7 ± 3.4 % control | proliferation (thymidine incorporation), % control ([2]; Capan-1, LY293111 500 nM): 15.7 ± 3.4 % control | proliferation (thymidine incorporation), % control ([2]; Capan-1, LY293111 1000 nM): 0.2 ± 0.3 % control | proliferation (thymidine incorporation), % control ([3]; PANC-1, LY293111 62.5 nM): 89.4 ± 4.4 % control | proliferation (thymidine incorporation), % control ([3]; PANC-1, LY293111 125 nM): 65.2 ± 3.8 % control | proliferation, % control (time course) ([3]; PANC-1, LY293111 500 nM, 6 h): 60.2 ± 6.5 % control | proliferation, % control (time course) ([3]; PANC-1, LY293111 500 nM, 12 h): 48.9 ± 5.3 % control | proliferation, % control (time course) ([3]; PANC-1, LY293111 500 nM, 24 h): 13.6 ± 1.0 % control | proliferation (thymidine incorporation), % control ([3]; PANC-1, LY293111 500 nM): 12.4 ± 3.1 % control | proliferation (thymidine incorporation), % control ([3]; PANC-1, LY293111 1000 nM): 5.6 ± 1.0 % control | decrease of proliferation ([4]; HPAF (FIG. 6B), LY293111 250 nM, 24 hours): 50% | proliferation with combination of LTB4 and LY293111 ([4]; HPAF, 250 nM LY293111 + 100 nM LTB4, 24 hours): restored to almost the control level | proliferation (thymidine incorporation), % control ([4]; HPAF, LY293111 62.5 nM, 24 hours): 103.6 ± 21.8 % control | proliferation (thymidine incorporation), % control ([4]; HPAF, LY293111 125 nM, 24 hours): 97.6 ± 24.5 % control | proliferation (thymidine incorporation), % control ([4]; HPAF, LY293111 250 nM, 24 hours): 49.3 ± 9.0 % control | proliferation, % control (time course) ([4]; HPAF, LY293111 500 nM, 6 h): 67.5 ± 11.6 % control | proliferation, % control (time course) ([4]; HPAF, LY293111 500 nM, 12 h): 35.7 ± 8.9 % control | proliferation, % control (time course) ([4]; HPAF, LY293111 500 nM, 24 h): 12.4 ± 3.3 % control | proliferation (thymidine incorporation), % control ([4]; HPAF, LY293111 500 nM, 24 hours): 10.3 ± 3.0 % control | proliferation (thymidine incorporation), % control ([4]; HPAF, LY293111 1000 nM, 24 hours): 2.3 ± 1.4 % control
